Measured values published in PMC3914206.

Legend:
Assay type in all cases: binding
Design in all cases: KINOMEscan: ABL1(F317L)-phosphorylated / KINOMEscan: ABL1(H396P)-nonphosphorylated / KINOMEscan: ABL1(H396P)-phosphorylated / KINOMEscan: ABL1(M351T)-phosphorylated / KINOMEscan: ABL1(T315I)-phosphorylated / KINOMEscan: ABL1-nonphosphorylated / KINOMEscan: ABL1-phosphorylated / KINOMEscan: ACVR2A / KINOMEscan: ACVR2B / KINOMEscan: ADCK3 / KINOMEscan: ADCK4 / KINOMEscan: AKT1 / KINOMEscan: AKT3 / KINOMEscan: ALK / KINOMEscan: ARK5 / KINOMEscan: AURKA / KINOMEscan: AURKC / KINOMEscan: BIKE / KINOMEscan: BMPR1A / KINOMEscan: BMPR1B / KINOMEscan: BMX / KINOMEscan: BRK / KINOMEscan: BRSK1 / KINOMEscan: BRSK2 / KINOMEscan: CAMK1 / KINOMEscan: CAMK1D / KINOMEscan: CAMK1G / KINOMEscan: CAMK2A / KINOMEscan: CAMK2B / KINOMEscan: AAK1 / KINOMEscan: CAMK2D / KINOMEscan: CAMK2G / KINOMEscan: ABL1(F317I)-nonphosphorylated / KINOMEscan: ABL1(F317I)-phosphorylated / KINOMEscan: ABL1(F317L)-nonphosphorylated: unit: % Ctrl
Settings in all cases: Compound Concentration 10 µM
panel of 442 kinases [1] = biological target: T1, panel of 442 kinases (Homo sapiens, UniProt Q13882)
T1 construct: purchased KINOMEscan
T1 sequence (Q13882 whole entry): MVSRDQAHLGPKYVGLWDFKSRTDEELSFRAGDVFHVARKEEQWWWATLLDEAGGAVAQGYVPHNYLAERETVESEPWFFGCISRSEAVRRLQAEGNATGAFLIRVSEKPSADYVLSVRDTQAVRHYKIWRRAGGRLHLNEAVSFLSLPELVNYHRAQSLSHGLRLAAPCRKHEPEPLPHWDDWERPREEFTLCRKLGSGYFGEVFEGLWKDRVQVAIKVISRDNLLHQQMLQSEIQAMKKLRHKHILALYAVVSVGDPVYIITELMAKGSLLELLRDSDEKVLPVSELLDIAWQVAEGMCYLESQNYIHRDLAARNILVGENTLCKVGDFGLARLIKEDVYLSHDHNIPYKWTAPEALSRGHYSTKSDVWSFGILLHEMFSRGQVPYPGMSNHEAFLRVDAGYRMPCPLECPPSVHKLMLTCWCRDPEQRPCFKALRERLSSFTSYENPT
Text: (§1) We assessed the selectivity of members of this scaffold using the KINOMEscan methodology across a near comprehensive panel of 442 kinases [[18,27]].

panel of 442 kinases [2] = biological target: T2, panel of 442 kinases (Homo sapiens, UniProt Q00532)
T2 construct: purchased KINOMEscan
T2 sequence (Q00532 whole entry): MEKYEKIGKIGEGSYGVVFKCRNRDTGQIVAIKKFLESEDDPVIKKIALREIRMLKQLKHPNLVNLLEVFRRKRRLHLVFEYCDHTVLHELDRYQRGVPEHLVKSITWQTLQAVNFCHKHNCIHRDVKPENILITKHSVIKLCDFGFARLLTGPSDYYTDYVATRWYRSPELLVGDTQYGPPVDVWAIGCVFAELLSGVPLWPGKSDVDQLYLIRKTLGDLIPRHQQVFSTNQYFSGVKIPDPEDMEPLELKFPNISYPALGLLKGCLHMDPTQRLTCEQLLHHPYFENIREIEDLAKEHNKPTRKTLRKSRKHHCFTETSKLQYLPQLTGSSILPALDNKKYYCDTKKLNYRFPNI
Text: as §1

panel of 442 kinases [3] = biological target: T3, panel of 442 kinases (Homo sapiens, UniProt P52564)
T3 construct: purchased KINOMEscan
T3 sequence (P52564 1-334): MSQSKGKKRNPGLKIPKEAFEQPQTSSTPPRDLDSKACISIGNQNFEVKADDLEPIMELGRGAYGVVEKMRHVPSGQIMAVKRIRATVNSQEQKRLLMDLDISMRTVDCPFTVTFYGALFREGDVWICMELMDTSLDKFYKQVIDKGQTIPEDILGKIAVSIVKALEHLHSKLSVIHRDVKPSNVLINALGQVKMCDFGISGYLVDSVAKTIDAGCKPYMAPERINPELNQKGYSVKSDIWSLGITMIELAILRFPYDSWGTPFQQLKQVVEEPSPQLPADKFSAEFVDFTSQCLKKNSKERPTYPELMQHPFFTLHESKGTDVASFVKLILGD
Text: as §1

| SMILES | KINOMEscan: BRK (panel of 442 kinases [1]) | KINOMEscan: CDKL1 (panel of 442 kinases [2]) | KINOMEscan: MEK6 (panel of 442 kinases [3]) |
| --- | --- | --- | --- |
| COc1cc(C(=O)N2CCC(N3CCN(C)CC3)CC2)ccc1Nc1ncc2c(n1)N(C)c1ccccc1C(=O)N2C [15 (LRRK2-IN-1)] | 58 | 78 | 83 |
| COc1cc(C(=O)N2CCC(N3CCN(C)CC3)CC2)ccc1Nc1ncc2c(n1)N1CCc3cccc(c31)C(=O)N2C [Compound 24] | 54 | – | 66 |
| COc1cc(C(=O)N2CCC(N3CCN(C)CC3)CC2)ccc1Nc1ncc2c(n1)N(C1CCCC1)c1ccccc1C(=O)N2C [Compound 25, 11-cyclopentyl-2-((2-methoxy-4-(4-(4-methylpiperazin-1-yl)piperidine-1-carbonyl)phenyl)amino)-5-methyl-5H-benzo[e]pyrimido[5,4-b][1,4]diazepin-6(11H)-one] | 29 | 100 | 61 |
| CCOc1cc(C(=O)N2CCC(N3CCN(C)CC3)CC2)ccc1Nc1ncc2c(n1)N(C1CCCC1)c1ccccc1C(=O)N2C [Compound 26] | 62 | 86 | 84 |
